Starred links: 1 amine or outer side, 2 acyl side, 3 side chain; linkers in the order of their positions; H or OH if unused. Positions of bridges follow the written chain, without caps; N, C: chain ends. Residues, ends and D or L forms follow the SMILES beside them. *: point of attachment. C20 diacid = O=C(O)CCCCCCCCCCCCCCCCCCC(=O)*; γGlu = O=C(O)[C@H](CCC(=O)[*:2])N[*:1]
Assay: Assay (III) ThT fibrillation assay for physical stability
Format: physicochemical
Conditions: for Th T pH 4.0 lag time (h): 37° C., orbital shaking 960 rpm; for ThT pH 4.0 lag time: Table 9
Summary of the method: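 Freshly prepared samples, pH adjusted with NaOH and HClO4 or HCl, received ThT at 1 μM final and were incubated at 37° C with orbital shaking at 960 rpm. Fluorescence (ex 444 nm, em 485 nm) was read every 20 minutes; […], with polypeptide concentration by reverse HPLC before and after.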

SMILES	Th T pH 4.0 lag time (h)	ThT pH 4.0 lag time [hr]
CC[C@H](C)[C@H](NC(=O)[C@@H]1CCCN1C(=O)CNC(=O)[C@H](Cc1ccccc1)NC(=O)[C@H](CC(N)=O)NC(=O)[C@H](CC(N)=O)NC(=O)[C@H](CO)NC(=O)[C@H](CO)NC(=O)[C@H](Cc1c[nH]cn1)NC(=O)[C@H](Cc1c[nH]cn1)NC(=O)[C@H](CC(C)C)NC(=O)[C@H](Cc1ccccc1)NC(=O)[C@H](CCC(=O)O)NC(=O)[C@H](C)NC(=O)[C@H](CC(C)C)NC(=O)[C@H](CCCCN)NC(=O)[C@H](CCC(N)=O)NC(=O)[C@@H](NC(=O)[C@H](C)NC(=O)[C@@H]1CSSC[C@H](NC(=O)[C@H](CCCCN)NC(=O)CC[C@H](NC(=O)CCCCCCCCCCCCCCCCCCC(=O)O)C(=O)O)C(=O)N[C@@H](CC(N)=O)C(=O)N[C@@H]([C@@H](C)O)C(=O)N[C@@H](C)C(=O)N[C@@H]([C@@H](C)O)C(=O)N1)[C@@H](C)O)C(=O)N[C@@H](CC(C)C)C(=O)N1CCC[C@H]1C(=O)N1CCC[C@H]1C(=O)N[C@H](C(=O)N[C@@H](CC(N)=O)C(=O)N[C@H](C(=O)NCC(=O)N[C@@H](CO)C(=O)N[C@@H](CC(N)=O)C(=O)N[C@H](C(=O)N1CCC[C@H]1C(N)=O)[C@@H](C)O)C(C)C)[C@@H](C)O [Example 145, N-alpha-[(S)-4-Carboxy-4-(19-carboxynonadecanoylamino)butyryl]-[Lys11, Glu14, His17, Pro37]-pramlintide] ({C20 diacid-γGlu}-KCNTATCATQKLAEFLHHSSNNFGPILPPTNVGSNTP-NH2; disulfide 2-7)	>45	>45
CC[C@H](C)[C@H](NC(=O)[C@@H]1CCCN1C(=O)CNC(=O)[C@H](Cc1ccccc1)NC(=O)[C@H](CC(N)=O)NC(=O)[C@@H](NC(=O)[C@H](CO)NC(=O)[C@H](CO)NC(=O)[C@H](Cc1c[nH]cn1)NC(=O)[C@H](Cc1c[nH]cn1)NC(=O)[C@H](CC(C)C)NC(=O)[C@H](Cc1ccccc1)NC(=O)[C@H](CCC(=O)O)NC(=O)[C@H](C)NC(=O)[C@H](CC(C)C)NC(=O)[C@H](CCCNC(=N)N)NC(=O)[C@H](CCC(N)=O)NC(=O)[C@@H](NC(=O)[C@H](C)NC(=O)[C@@H]1CSSC[C@H](NC(=O)[C@H](CCCCN)NC(=O)CC[C@H](NC(=O)CCCCCCCCCCCCCCCCCCC(=O)O)C(=O)O)C(=O)N[C@@H](CC(N)=O)C(=O)N[C@@H]([C@@H](C)O)C(=O)N[C@@H](C)C(=O)N[C@@H]([C@@H](C)O)C(=O)N1)[C@@H](C)O)[C@@H](C)O)C(=O)N[C@@H](CC(C)C)C(=O)N1CCC[C@H]1C(=O)N1CCC[C@H]1C(=O)N[C@H](C(=O)N[C@@H](CC(N)=O)C(=O)N[C@H](C(=O)NCC(=O)N[C@@H](CO)C(=O)N[C@@H](CC(N)=O)C(=O)N[C@H](C(=O)N1CCC[C@H]1C(N)=O)[C@@H](C)O)C(C)C)[C@@H](C)O [Example 146, N-alpha-[(S)-4-Carboxy-4-(19-carboxynonadecanoylamino)butyryl]-[Glu14, His17, Thr21, Pro37]-pramlintide] ({C20 diacid-γGlu}-KCNTATCATQRLAEFLHHSSTNFGPILPPTNVGSNTP-NH2; disulfide 2-7 (inferred); C-terminus assumed)	>45	>45
CC[C@H](C)[C@H](NC(=O)[C@@H]1CCCN1C(=O)CNC(=O)[C@H](Cc1ccccc1)NC(=O)[C@H](CC(N)=O)NC(=O)[C@H](CC(N)=O)NC(=O)[C@H](CO)NC(=O)[C@H](CO)NC(=O)[C@H](Cc1c[nH]cn1)NC(=O)[C@H](CCCNC(=N)N)NC(=O)[C@H](CC(C)C)NC(=O)[C@H](Cc1ccccc1)NC(=O)[C@H](CCC(=O)O)NC(=O)[C@H](C)NC(=O)[C@H](CC(C)C)NC(=O)[C@H](CCCNC(=N)N)NC(=O)[C@H](CCC(N)=O)NC(=O)[C@@H](NC(=O)[C@H](C)NC(=O)[C@@H]1CSSC[C@H](NC(=O)[C@H](CCCNC(=N)N)NC(=O)[C@H](CCC(=O)O)NC(=O)CC[C@H](NC(=O)CCCCCCCCCCCCCCCCCCC(=O)O)C(=O)O)C(=O)N[C@@H](CC(N)=O)C(=O)N[C@@H]([C@@H](C)O)C(=O)N[C@@H](C)C(=O)N[C@@H]([C@@H](C)O)C(=O)N1)[C@@H](C)O)C(=O)N[C@@H](CC(C)C)C(=O)N1CCC[C@H]1C(=O)N1CCC[C@H]1C(=O)N[C@H](C(=O)N[C@@H](CC(N)=O)C(=O)N[C@H](C(=O)NCC(=O)N[C@@H](CO)C(=O)N[C@@H](CC(N)=O)C(=O)N[C@H](C(=O)N1CCC[C@H]1C(N)=O)[C@@H](C)O)C(C)C)[C@@H](C)O [Example 156, N-alpha-[(S)-4-Carboxy-4-(19-carboxynonadecanoylamino)butyryl]-Glu-[Arg1, Glu14, Arg17, Pro37]-pramlintide] ({C20 diacid-γGlu}-ERCNTATCATQRLAEFLRHSSNNFGPILPPTNVGSNTP-NH2; disulfide 3-8)	>45	
CC[C@H](C)[C@H](NC(=O)[C@@H]1CCCN1C(=O)CNC(=O)[C@H](Cc1ccccc1)NC(=O)[C@H](CC(N)=O)NC(=O)[C@H](CCC(N)=O)NC(=O)[C@H](CO)NC(=O)[C@H](CO)NC(=O)[C@H](Cc1c[nH]cn1)NC(=O)[C@H](CCCNC(=N)N)NC(=O)[C@H](CC(C)C)NC(=O)[C@H](Cc1ccccc1)NC(=O)[C@H](CCC(=O)O)NC(=O)[C@H](C)NC(=O)[C@H](CC(C)C)NC(=O)[C@H](CCCNC(=N)N)NC(=O)[C@H](CCC(N)=O)NC(=O)[C@@H](NC(=O)[C@H](C)NC(=O)[C@@H]1CSSC[C@H](NC(=O)[C@H](CCC(=O)O)NC(=O)[C@H](CCCNC(=N)N)NC(=O)[C@H](CCC(=O)O)NC(=O)CC[C@H](NC(=O)CCCCCCCCCCCCCCCCCCC(=O)O)C(=O)O)C(=O)N[C@@H](CC(N)=O)C(=O)N[C@@H]([C@@H](C)O)C(=O)N[C@@H](C)C(=O)N[C@@H]([C@@H](C)O)C(=O)N1)[C@@H](C)O)C(=O)N[C@@H](CC(C)C)C(=O)N1CCC[C@H]1C(=O)N1CCC[C@H]1C(=O)N[C@H](C(=O)N[C@@H](CC(N)=O)C(=O)N[C@H](C(=O)NCC(=O)N[C@@H](CO)C(=O)N[C@@H](CC(N)=O)C(=O)N[C@H](C(=O)N1CCC[C@H]1C(N)=O)[C@@H](C)O)C(C)C)[C@@H](C)O [Example 161, N-alpha-[(S)-4-Carboxy-4-(19-carboxynonadecanoylamino)butyryl]-Glu-Arg-[Glu1, Glu14, Arg17, Gln21, Pro37]-pramlintide] ({C20 diacid-γGlu}-ERECNTATCATQRLAEFLRHSSQNFGPILPPTNVGSNTP-NH2; disulfide 4-9 (inferred); C-terminus assumed)	>45	>45
CC[C@H](C)[C@H](NC(=O)[C@@H]1CCCN1C(=O)CNC(=O)[C@H](Cc1ccccc1)NC(=O)[C@H](CC(N)=O)NC(=O)[C@H](CCC(N)=O)NC(=O)[C@H](CO)NC(=O)[C@H](CO)NC(=O)[C@H](Cc1c[nH]cn1)NC(=O)[C@H](CCCNC(=N)N)NC(=O)[C@H](CC(C)C)NC(=O)[C@H](Cc1ccccc1)NC(=O)[C@H](CCC(=O)O)NC(=O)[C@H](C)NC(=O)[C@H](CC(C)C)NC(=O)[C@H](CCCNC(=N)N)NC(=O)[C@H](CCC(N)=O)NC(=O)[C@@H](NC(=O)[C@H](C)NC(=O)[C@@H]1CSSC[C@H](NC(=O)[C@H](CCC(=O)O)NC(=O)[C@H](CCCNC(=N)N)NC(=O)[C@H](CCC(=O)O)NC(=O)CC[C@H](NC(=O)CCCCCCCCCCCCCCCCCCC(=O)O)C(=O)O)C(=O)N[C@@H](CC(N)=O)C(=O)N[C@@H]([C@@H](C)O)C(=O)N[C@@H](C)C(=O)N[C@@H]([C@@H](C)O)C(=O)N1)[C@@H](C)O)C(=O)N[C@@H](CC(C)C)C(=O)N1CCC[C@H]1C(=O)N1CCC[C@H]1C(=O)N[C@H](C(=O)N[C@@H](CC(N)=O)C(=O)N[C@H](C(=O)NCC(=O)N[C@@H](CO)C(=O)N[C@@H](CCC(N)=O)C(=O)N[C@H](C(=O)N1CCC[C@H]1C(N)=O)[C@@H](C)O)C(C)C)[C@@H](C)O [Example 162, N-alpha-[(S)-4-Carboxy-4-(19-carboxynonadecanoylamino)butyryl]-Glu-Arg-[Glu1, Glu14, Arg17, Gln21, Gln35, Pro37]-pramlintide] ({C20 diacid-γGlu}-ERECNTATCATQRLAEFLRHSSQNFGPILPPTNVGSQTP-NH2; disulfide 4-9)	>45	>45
CC[C@H](C)[C@H](NC(=O)[C@@H]1CCCN1C(=O)CNC(=O)[C@H](Cc1ccccc1)NC(=O)[C@H](CC(N)=O)NC(=O)[C@H](CCC(N)=O)NC(=O)[C@H](CO)NC(=O)[C@H](CO)NC(=O)[C@H](Cc1c[nH]cn1)NC(=O)[C@H](CCCNC(=N)N)NC(=O)[C@H](CC(C)C)NC(=O)[C@H](Cc1ccccc1)NC(=O)[C@H](CCC(=O)O)NC(=O)[C@H](C)NC(=O)[C@H](CC(C)C)NC(=O)[C@H](CCCNC(=N)N)NC(=O)[C@H](CCC(N)=O)NC(=O)[C@@H](NC(=O)[C@H](C)NC(=O)[C@@H]1CSSC[C@H](NC(=O)[C@H](CCC(=O)O)NC(=O)[C@H](CCCNC(=N)N)NC(=O)[C@H](CCC(=O)O)NC(=O)CC[C@H](NC(=O)CCCCCCCCCCCCCCCCCCC(=O)O)C(=O)O)C(=O)N[C@@H](CC(N)=O)C(=O)N[C@@H]([C@@H](C)O)C(=O)N[C@@H](C)C(=O)N[C@@H]([C@@H](C)O)C(=O)N1)[C@@H](C)O)C(=O)N[C@@H](CC(C)C)C(=O)N1CCC[C@H]1C(=O)N1CCC[C@H]1C(=O)N[C@H](C(=O)N[C@@H](CCC(N)=O)C(=O)N[C@H](C(=O)NCC(=O)N[C@@H](CO)C(=O)N[C@@H](CCC(N)=O)C(=O)N[C@H](C(=O)N1CCC[C@H]1C(N)=O)[C@@H](C)O)C(C)C)[C@@H](C)O [Example 163, N-alpha-[(S)-4-Carboxy-4-(19-carboxynonadecanoylamino)butyryl]-Glu-Arg-[Glu1, Glu14, Arg17, Gln21, Gln31, Gln35, Pro37]-pramlintide] ({C20 diacid-γGlu}-ERECNTATCATQRLAEFLRHSSQNFGPILPPTQVGSQTP-NH2; disulfide 4-9)	>45	>45

Source: patent US9029325B2, “Amylin analogues and pharmaceutical compositions thereof” (Novo Nordisk A/S, priority 2011, dated 2015)
